In paper PMC4490784, “Compensatory induction of MYC expression by sustained CDK9 inhibition via a BRD4-dependent mechanism” (eLife, 2015):

Legend:
Assay in all cases: KINOMEscan binding assay
[1] = biological target: T1, ABL1(F317L)-nonphosphorylated (Homo sapiens, UniProt P00519, F317L); details: read-out: % Retention on Solid Support
T1 construct: purchased DiscoveRx KINOMEscan
Protocol: (§1) As there are no commercial or in-house kinase assays available for CDK3, CDK5, CDK11 and CDK13, the inhibitory abilities of i-CDK9 toward these CDKs were thus evaluated in the DiscoveRx KINOMEscan assay, which is based on a proprietary active site-directed competition-binding platform ([Fabian et al., 2005]).
(§2) The inhibitory activity of i-CDK9 for CDK1-CycB (Upstate/Millipore), CDK2-CycA (Invitrogen), CDK4-CycD1 (Novartis), CDK7-CycH-MAT1 (Invitrogen), and CDK9-CycT1 (Invitrogen) was assessed in the AlphaScreen (PerkinElmer, Inc)-based kinase assay developed at Novartis. Briefly, each CDK–cyclin pair was pre-incubated with i-CDK9 for 15 min, followed by addition of kinase substrates (ELK for CDK1 and CDK2, RB for CDK4, and CDK7tide for CDK7 and CDK9). The mixture was incubated at room temperature for additional 4–5 hr. The reaction was stopped and read on Envision (PerkinElmer, Inc). Selectivity against a large panel of over 400 kinases was evaluated using the KINOMEscan platform (DiscoveRx, CA) employing a proprietary active site-directed competition binding assay ([Fabian et al., 2005]). The assay was conducted at two different concentrations of i-CDK9 (1 and 10 µM) by DiscoveRx.

[2] = biological target: T2, ABL1(Q252H)-nonphosphorylated (Homo sapiens, UniProt P00519, Q252H); details: read-out: % Retention on Solid Support
T2 construct: purchased DiscoveRx KINOMEscan
Protocol: as §1, §2

[3] = biological target: T3, ABL1(Y253F)-non phosphorylated (Homo sapiens, UniProt P00519, Y253F); details: read-out: % Retention on Solid Support
T3 construct: purchased DiscoveRx KINOMEscan
Protocol: as §1, §2

ADCK3 = biological target: T4, ADCK3 (Homo sapiens, UniProt Q8NI60); details: read-out: % Retention on Solid Support
T4 construct: purchased DiscoveRx KINOMEscan
Protocol: as §1, §2

BMPR1B = biological target: T5, BMPR1B (Homo sapiens, UniProt O00238); details: read-out: % Retention on Solid Support
T5 construct: purchased DiscoveRx KINOMEscan
Protocol: as §1, §2

BRSK2 = biological target: T6, BRSK2 (Homo sapiens, UniProt Q8IWQ3); details: read-out: % Retention on Solid Support
T6 construct: purchased DiscoveRx KINOMEscan
T6 sequence (Q8IWQ3 whole entry): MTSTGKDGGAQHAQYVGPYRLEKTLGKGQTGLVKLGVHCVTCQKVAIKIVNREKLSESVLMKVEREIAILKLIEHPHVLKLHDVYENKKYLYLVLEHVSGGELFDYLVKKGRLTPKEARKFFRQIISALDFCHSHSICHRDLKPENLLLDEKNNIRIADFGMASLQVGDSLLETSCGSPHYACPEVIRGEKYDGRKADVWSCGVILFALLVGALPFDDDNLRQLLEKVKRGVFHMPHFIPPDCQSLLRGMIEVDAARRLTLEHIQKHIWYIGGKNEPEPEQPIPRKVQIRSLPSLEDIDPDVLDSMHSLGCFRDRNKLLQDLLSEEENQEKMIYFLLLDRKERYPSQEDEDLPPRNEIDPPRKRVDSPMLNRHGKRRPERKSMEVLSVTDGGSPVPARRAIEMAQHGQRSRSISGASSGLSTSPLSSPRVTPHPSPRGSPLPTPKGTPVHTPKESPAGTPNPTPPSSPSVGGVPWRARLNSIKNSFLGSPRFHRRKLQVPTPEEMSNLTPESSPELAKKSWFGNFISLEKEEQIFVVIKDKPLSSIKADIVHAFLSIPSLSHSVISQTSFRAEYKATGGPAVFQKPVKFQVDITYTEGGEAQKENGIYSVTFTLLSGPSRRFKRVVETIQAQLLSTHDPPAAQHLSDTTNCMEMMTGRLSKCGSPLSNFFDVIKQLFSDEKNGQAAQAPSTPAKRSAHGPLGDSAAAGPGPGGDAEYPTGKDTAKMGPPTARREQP
Protocol: as §1, §2

CDK13 = biological target: T7, CDK13 (Homo sapiens, UniProt Q14004); details: 1 µM i-CDK9
T7 construct: purchased DiscoveRx
Protocol: as §1, §2

CDK7 = biological target: T8, CDK7 (Homo sapiens, UniProt P50613); details: read-out: % Retention on Solid Support
T8 construct: purchased DiscoveRx KINOMEscan
Protocol: as §1, §2

CDKL1 = biological target: T9, CDKL1 (Homo sapiens, UniProt Q00532); details: 1 µM i-CDK9; read-out: % Retention on Solid Support
T9 construct: purchased DiscoveRx KINOMEscan
Protocol: as §1, §2

CIT = biological target: T10, CIT (Homo sapiens, UniProt O14578)
T10 construct: purchased DiscoveRx KINOMEscan
Protocol: as §1, §2

CSNK1G2 = biological target: T11, CSNK1G2 (Homo sapiens, UniProt P78368)
T11 construct: purchased DiscoveRx KINOMEscan
T11 sequence (P78368 whole entry): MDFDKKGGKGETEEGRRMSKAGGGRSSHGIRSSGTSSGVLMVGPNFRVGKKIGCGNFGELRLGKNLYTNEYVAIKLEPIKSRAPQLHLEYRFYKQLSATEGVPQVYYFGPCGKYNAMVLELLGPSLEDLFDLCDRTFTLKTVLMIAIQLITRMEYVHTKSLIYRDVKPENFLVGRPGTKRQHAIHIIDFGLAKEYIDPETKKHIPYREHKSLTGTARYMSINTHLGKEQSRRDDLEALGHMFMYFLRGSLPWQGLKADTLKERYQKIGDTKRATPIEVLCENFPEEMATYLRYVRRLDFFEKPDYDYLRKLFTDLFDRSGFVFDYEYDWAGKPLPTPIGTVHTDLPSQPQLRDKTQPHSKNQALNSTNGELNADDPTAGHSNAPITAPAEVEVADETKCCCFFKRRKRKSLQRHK
Protocol: as §1, §2

DDR2 = biological target: T12, DDR2 (Homo sapiens, UniProt Q16832); details: read-out: % Retention on Solid Support
T12 construct: purchased DiscoveRx KINOMEscan
Protocol: as §1, §2

DRAK1 = biological target: T13, DRAK1 (Homo sapiens, UniProt Q9UEE5); details: read-out: % Retention on Solid Support
T13 construct: purchased DiscoveRx KINOMEscan
T13 sequence (Q9UEE5 whole entry): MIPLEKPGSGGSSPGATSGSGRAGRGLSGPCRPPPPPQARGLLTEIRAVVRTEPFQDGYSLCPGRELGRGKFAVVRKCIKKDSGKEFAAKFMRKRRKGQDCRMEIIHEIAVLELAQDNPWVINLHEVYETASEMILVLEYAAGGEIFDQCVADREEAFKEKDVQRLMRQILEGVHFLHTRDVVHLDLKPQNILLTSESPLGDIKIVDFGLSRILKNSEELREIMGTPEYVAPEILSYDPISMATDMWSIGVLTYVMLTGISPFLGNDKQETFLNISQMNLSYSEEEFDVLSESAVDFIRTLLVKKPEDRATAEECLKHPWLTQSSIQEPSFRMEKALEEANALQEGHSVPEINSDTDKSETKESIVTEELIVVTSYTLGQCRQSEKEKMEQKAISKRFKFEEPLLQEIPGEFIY
Protocol: as §1, §2

ERK4 = biological target: T14, ERK4 (Homo sapiens, UniProt P31152); details: read-out: % Retention on Solid Support
T14 construct: purchased DiscoveRx KINOMEscan
T14 sequence (P31152 whole entry): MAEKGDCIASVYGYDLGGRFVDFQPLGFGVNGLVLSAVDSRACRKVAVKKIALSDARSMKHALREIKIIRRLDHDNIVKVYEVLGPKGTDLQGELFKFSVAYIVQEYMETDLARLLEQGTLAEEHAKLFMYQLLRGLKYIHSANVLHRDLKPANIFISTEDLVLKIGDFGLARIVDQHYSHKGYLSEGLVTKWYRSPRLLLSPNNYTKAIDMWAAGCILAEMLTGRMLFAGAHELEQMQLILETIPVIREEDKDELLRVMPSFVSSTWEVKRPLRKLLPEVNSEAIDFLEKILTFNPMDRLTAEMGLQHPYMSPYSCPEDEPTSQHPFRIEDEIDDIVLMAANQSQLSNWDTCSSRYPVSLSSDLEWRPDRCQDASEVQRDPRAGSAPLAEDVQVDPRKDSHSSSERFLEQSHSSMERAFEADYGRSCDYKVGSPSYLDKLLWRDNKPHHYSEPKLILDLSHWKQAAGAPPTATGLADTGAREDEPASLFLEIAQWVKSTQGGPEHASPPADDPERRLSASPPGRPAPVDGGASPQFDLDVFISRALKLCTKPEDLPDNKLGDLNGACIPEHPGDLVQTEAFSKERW
Protocol: as §1, §2

FLT3(N841I) = biological target: T15, FLT3(N841I) (Homo sapiens, UniProt P36888, N841I); details: read-out: % Retention on Solid Support
T15 construct: purchased DiscoveRx KINOMEscan
Protocol: as §1, §2

FYN = biological target: T16, FYN (Homo sapiens, UniProt P06241); details: read-out: % Retention on Solid Support
T16 construct: purchased DiscoveRx KINOMEscan
T16 sequence (P06241 whole entry): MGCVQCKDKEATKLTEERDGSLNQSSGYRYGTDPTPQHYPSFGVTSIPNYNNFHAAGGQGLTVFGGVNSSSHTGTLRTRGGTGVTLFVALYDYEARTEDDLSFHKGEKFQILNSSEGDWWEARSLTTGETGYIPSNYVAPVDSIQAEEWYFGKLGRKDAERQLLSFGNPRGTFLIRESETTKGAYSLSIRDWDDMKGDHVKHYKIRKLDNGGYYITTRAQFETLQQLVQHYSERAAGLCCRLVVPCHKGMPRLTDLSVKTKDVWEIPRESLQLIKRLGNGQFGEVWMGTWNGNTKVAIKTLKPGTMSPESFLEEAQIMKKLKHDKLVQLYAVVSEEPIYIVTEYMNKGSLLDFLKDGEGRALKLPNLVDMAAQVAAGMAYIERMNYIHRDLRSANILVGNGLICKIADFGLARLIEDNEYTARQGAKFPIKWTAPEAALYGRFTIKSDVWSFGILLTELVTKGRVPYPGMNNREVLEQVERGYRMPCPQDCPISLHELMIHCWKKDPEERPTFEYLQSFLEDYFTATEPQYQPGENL
Protocol: as §1, §2

ITK = biological target: T17, ITK (Homo sapiens, UniProt Q08881)
T17 construct: purchased DiscoveRx KINOMEscan
T17 sequence (Q08881 whole entry): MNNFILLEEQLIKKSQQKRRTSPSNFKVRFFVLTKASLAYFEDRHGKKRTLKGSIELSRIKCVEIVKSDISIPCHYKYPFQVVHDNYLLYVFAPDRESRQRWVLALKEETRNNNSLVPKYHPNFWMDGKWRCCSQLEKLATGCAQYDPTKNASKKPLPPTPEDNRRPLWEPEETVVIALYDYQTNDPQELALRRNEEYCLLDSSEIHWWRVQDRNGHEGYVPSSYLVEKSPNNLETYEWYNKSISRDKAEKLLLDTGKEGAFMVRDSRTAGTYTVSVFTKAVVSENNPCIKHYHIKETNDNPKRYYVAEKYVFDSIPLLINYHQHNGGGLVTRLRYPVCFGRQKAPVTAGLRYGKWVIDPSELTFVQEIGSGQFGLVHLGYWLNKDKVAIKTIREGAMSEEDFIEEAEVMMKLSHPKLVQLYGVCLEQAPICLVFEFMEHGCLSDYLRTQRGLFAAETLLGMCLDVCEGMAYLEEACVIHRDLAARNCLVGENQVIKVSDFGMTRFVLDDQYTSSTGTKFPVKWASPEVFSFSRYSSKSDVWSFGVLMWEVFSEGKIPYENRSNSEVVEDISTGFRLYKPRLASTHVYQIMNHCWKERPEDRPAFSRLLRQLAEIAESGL
Protocol: as §1, §2

NEK2 = biological target: T18, NEK2 (Homo sapiens, UniProt P51955); details: read-out: % Retention on Solid Support
T18 construct: purchased DiscoveRx KINOMEscan
Protocol: as §1, §2

NIM1 = biological target: T19, NIM1 (Homo sapiens, UniProt Q8IY84); details: read-out: % Retention on Solid Support
T19 construct: purchased DiscoveRx KINOMEscan
Protocol: as §1, §2

PCTK3 = biological target: T20, PCTK3 (Homo sapiens, UniProt Q07002); details: read-out: % Retention on Solid Support
T20 construct: purchased DiscoveRx KINOMEscan
Protocol: as §1, §2

PKAC-beta = biological target: T21, PKAC-beta (Homo sapiens, UniProt P22694); details: read-out: % Retention on Solid Support
T21 construct: purchased DiscoveRx KINOMEscan
Protocol: as §1, §2

PRKG1 = biological target: T22, PRKG1 (Homo sapiens, UniProt Q13976); details: read-out: % Retention on Solid Support
T22 construct: purchased DiscoveRx KINOMEscan
Protocol: as §1, §2

RIPK1 = biological target: T23, RIPK1 (Homo sapiens, UniProt Q13546); details: read-out: % Retention on Solid Support
T23 construct: purchased DiscoveRx KINOMEscan
Protocol: as §1, §2

[4] = biological target: T24, RPS6KA5(Kin.Dom.1-N-terminal) (Homo sapiens, UniProt O75582); details: read-out: % Retention on Solid Support
T24 construct: RPS6KA5(Kin.Dom.1-N-terminal); purchased DiscoveRx KINOMEscan
Protocol: as §1, §2

[5] = biological target: RPS6KA5(Kin.Dom.2-C-terminal) (Homo sapiens, UniProt O75582); details: read-out: % Retention on Solid Support
Protocol: as §1, §2

[6] = biological target: T25, RSK4(Kin.Dom.1-N-terminal) (Homo sapiens, UniProt Q9UK32)
T25 construct: RSK4(Kin.Dom.1-N-terminal); purchased DiscoveRx KINOMEscan
T25 sequence (Q9UK32 1-400 limits assumed): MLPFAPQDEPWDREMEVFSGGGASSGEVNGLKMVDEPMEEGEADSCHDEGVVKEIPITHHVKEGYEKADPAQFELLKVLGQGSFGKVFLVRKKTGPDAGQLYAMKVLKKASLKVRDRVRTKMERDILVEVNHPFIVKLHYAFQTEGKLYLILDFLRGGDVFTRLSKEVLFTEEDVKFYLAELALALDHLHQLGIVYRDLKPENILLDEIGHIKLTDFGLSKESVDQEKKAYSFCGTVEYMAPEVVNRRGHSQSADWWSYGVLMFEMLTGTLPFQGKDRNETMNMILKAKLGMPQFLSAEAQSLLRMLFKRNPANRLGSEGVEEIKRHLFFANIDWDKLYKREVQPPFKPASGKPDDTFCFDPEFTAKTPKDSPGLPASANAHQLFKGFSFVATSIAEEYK
Protocol: as §1, §2

SIK2 = biological target: T26, SIK2 (Homo sapiens, UniProt Q9H0K1); details: read-out: % Retention on Solid Support
T26 construct: purchased DiscoveRx KINOMEscan
Protocol: as §1, §2

YSK4 = biological target: T27, YSK4 (Homo sapiens, UniProt Q56UN5); details: read-out: % Retention on Solid Support
T27 construct: purchased DiscoveRx KINOMEscan
T27 sequence (Q56UN5 whole entry): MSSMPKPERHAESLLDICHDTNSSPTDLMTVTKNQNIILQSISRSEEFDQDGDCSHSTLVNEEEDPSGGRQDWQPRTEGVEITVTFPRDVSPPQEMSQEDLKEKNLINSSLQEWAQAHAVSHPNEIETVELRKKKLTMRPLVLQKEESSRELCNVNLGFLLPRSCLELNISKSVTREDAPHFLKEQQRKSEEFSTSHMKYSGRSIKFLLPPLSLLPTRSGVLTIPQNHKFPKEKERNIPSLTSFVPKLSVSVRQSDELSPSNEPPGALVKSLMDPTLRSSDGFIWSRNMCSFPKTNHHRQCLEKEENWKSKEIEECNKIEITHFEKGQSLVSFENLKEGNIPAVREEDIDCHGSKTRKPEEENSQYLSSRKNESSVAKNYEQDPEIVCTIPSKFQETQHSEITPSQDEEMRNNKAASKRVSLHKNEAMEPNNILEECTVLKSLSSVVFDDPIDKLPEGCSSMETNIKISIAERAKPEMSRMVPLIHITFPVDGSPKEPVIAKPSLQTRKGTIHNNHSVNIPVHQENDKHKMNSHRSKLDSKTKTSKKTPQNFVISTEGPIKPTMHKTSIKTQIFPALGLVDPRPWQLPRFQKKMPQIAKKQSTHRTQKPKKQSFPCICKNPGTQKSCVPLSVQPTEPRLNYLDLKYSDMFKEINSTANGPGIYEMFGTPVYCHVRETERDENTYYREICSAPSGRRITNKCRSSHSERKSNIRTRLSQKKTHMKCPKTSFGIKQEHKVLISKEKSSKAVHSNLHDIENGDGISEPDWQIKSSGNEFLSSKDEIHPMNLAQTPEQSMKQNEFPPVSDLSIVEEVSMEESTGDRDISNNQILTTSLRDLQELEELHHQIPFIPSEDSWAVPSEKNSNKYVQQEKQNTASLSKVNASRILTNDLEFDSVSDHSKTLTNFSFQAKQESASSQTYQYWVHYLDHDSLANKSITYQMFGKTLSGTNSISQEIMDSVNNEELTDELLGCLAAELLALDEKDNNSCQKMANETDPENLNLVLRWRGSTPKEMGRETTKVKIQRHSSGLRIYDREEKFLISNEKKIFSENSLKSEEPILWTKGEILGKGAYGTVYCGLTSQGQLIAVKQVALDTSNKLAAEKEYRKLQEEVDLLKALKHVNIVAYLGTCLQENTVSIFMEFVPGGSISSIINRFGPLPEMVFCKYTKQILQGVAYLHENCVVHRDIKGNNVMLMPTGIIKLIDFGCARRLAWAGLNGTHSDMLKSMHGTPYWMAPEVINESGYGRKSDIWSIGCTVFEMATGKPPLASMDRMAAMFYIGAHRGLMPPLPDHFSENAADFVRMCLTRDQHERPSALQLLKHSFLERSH
Protocol: as §1, §2

For N[C@H]1CC[C@H](Nc2cc(-c3cccc(NCc4cccc(F)c4)n3)c(Cl)cn2)CC1 [i-CDK9, N2′-(trans-4-aminocyclohexyl)-5′-chloro-N6-(3-fluorobenzyl)-2,4′-bipyridine-2′,6-diamine], the remaining binding at 1 µM ([1]; 1 µM i-CDK9) was 100%, the remaining binding at 10 µM ([1]; 10 µM i-CDK9) was 91% and the remaining binding at 1 µM ([2]; 1 µM i-CDK9) was 55%. For the same molecule, the remaining binding at 10 µM ([2]; 10 µM i-CDK9) was 91%, the remaining binding at 1 µM ([3]; 1 µM i-CDK9) was 84% and the remaining binding at 10 µM ([3]; 10 µM i-CDK9) was 100%. It also gave a remaining binding at 1 µM (ADCK3; 1 µM i-CDK9) of 100%, a remaining binding at 10 µM (ADCK3; 10 µM i-CDK9) of 86% and a remaining binding at 1 µM (BMPR1B; 1 µM i-CDK9) of 100%. The remaining binding at 10 µM (BMPR1B; 10 µM i-CDK9) was 89%, the remaining binding at 1 µM (BRSK2; 1 µM i-CDK9) was 93% and the remaining binding at 10 µM (BRSK2; 10 µM i-CDK9) was 88%. The “% binding to immobilized ligand” value (CDK13) was 100%, the remaining binding at 1 µM (CDK7; 1 µM i-CDK9) was 14% and the remaining binding at 10 µM (CDK7; 10 µM i-CDK9) was 11%. The remaining binding at 1 µM (CDKL1) was 100%, the “% Retention on Solid Support” value (CIT; 1 µM i-CDK9) was 60% and the “% Retention on Solid Support” value (CIT; 10 µM i-CDK9) was 8.2%. For the same molecule, the “% Retention on Solid Support” value (CSNK1G2; 1 µM i-CDK9) was 100%, the “% Retention on Solid Support” value (CSNK1G2; 10 µM i-CDK9) was 66% and the remaining binding at 1 µM (DDR2; 1 µM i-CDK9) was 100%. It also gave a remaining binding at 10 µM (DDR2; 10 µM i-CDK9) of 92%, a remaining binding at 1 µM (DRAK1; 1 µM i-CDK9) of 90% and a remaining binding at 10 µM (DRAK1; 10 µM i-CDK9) of 48%. The remaining binding at 1 µM (ERK4; 1 µM i-CDK9) was 100%, the remaining binding at 10 µM (ERK4; 10 µM i-CDK9) was 100% and the remaining binding at 1 µM (FLT3(N841I); 1 µM i-CDK9) was 48%. It also gave a remaining binding at 10 µM (FLT3(N841I); 10 µM i-CDK9) of 72%, a remaining binding at 1 µM (FYN; 1 µM i-CDK9) of 69% and a remaining binding at 10 µM (FYN; 10 µM i-CDK9) of 100%. The “% Retention on Solid Support” value (ITK; 1 µM i-CDK9) was 100%, the “% Retention on Solid Support” value (ITK; 10 µM i-CDK9) was 86% and the remaining binding at 1 µM (NEK2; 1 µM i-CDK9) was 77%. The remaining binding at 10 µM (NEK2; 10 µM i-CDK9) was 100%, the remaining binding at 1 µM (NIM1; 1 µM i-CDK9) was 100% and the remaining binding at 10 µM (NIM1; 10 µM i-CDK9) was 100%. The remaining binding at 1 µM (PCTK3; 1 µM i-CDK9) was 33%, the remaining binding at 10 µM (PCTK3; 10 µM i-CDK9) was 0.15% and the remaining binding at 1 µM (PKAC-beta; 1 µM i-CDK9) was 80%. The remaining binding at 10 µM (PKAC-beta; 10 µM i-CDK9) was 80%, the remaining binding at 1 µM (PRKG1; 1 µM i-CDK9) was 81% and the remaining binding at 10 µM (PRKG1; 10 µM i-CDK9) was 88%. It also gave a remaining binding at 1 µM (RIPK1; 1 µM i-CDK9) of 100%, a remaining binding at 10 µM (RIPK1; 10 µM i-CDK9) of 100% and a remaining binding at 1 µM ([4]; 1 µM i-CDK9) of 79%. The remaining binding at 10 µM ([4]; 10 µM i-CDK9) was 100%, the remaining binding at 1 µM ([5]; 1 µM i-CDK9) was 100% and the remaining binding at 10 µM ([5]; 10 µM i-CDK9) was 100%. The “% Retention on Solid Support” value ([6]; 1 µM i-CDK9) was 70%, the “% Retention on Solid Support” value ([6]; 10 µM i-CDK9) was 100% and the remaining binding at 1 µM (SIK2; 1 µM i-CDK9) was 90%. The remaining binding at 10 µM (SIK2; 10 µM i-CDK9) was 64%, the remaining binding at 1 µM (YSK4; 1 µM i-CDK9) was 100% and the remaining binding at 10 µM (YSK4; 10 µM i-CDK9) was 68%.
